Experimental data: patent publication US12509429B2, “Hydroxybenzamide derivatives and methods of use in treating diabetes” (THE BOARD OF REGENTS OF THE UNIVERSITY OF OKLAHOMA, priority 2022, dated 2025)
Read-outs that look alike come from different tables or passages of the source.

Key:
INS-1 cells [1] = assay: Cell viability assay: protection of INS-1 cells from tunicamycin (Tm)-induced loss of viability (CellTiter-Glo, intracellular ATP); format: cell-based, rat; conditions: for Emax / EC50: Rattus norvegicus; for Emax: % rescue from Tm (0.15 μg/mL)-induced reduction of INS-1 cell viability (intracellular ATP), Tm alone 0%, DMSO without Tm 100%, 72 h, read-out: Maximum % of Protection; for EC50: INS-1 cell viability, Tm 0.15 μg/mL, ten 2-fold serial titration points, GraphPad Prism
Method: INS-1 cells were resuspended in RPMI 1640 medium containing 10% FBS and seeded at 5×10^3 cells/well in a 384-well plate. After overnight 24 h incubation, compounds were added to the wells at the indicated concentration using a pin-transfer robot (PerkinElmer). Tm in RPMI 1640 medium containing 10% FBS was then added at a final concentration of 0.15 μg/mL. After 72 h, the medium was removed and 20 μL of CellTiter-Glo reagent (Promega) was added. Luminescence was measured 10 min later using a Synergy Neo2 plate reader (Biotek).
Hydroxy benzamide (HBA) derivatives were synthesized based on various scaffolds and evaluated for their viability of rat INS-1 β cells in the presence of tunicamycin (Tm), a potent ER stress inducer that inhibits N-linked glycosylation of proteins. The maximum activities and the concentrations that reach half-maximal activity (EC50) of the compounds were evaluated by the degree of increase in viability of INS-1 cells co-treated with the compounds in the presence of Tm compared with Tm treatment alone.

INS-1 cells [2] = conditions: earlier work; protection of β-cell survival against ER stress; cited from earlier work

Row | SMILES | Emax (INS-1 cells [1]; INS1) [%] | EC50 (INS-1 cells [1]; INS1) [µM] | other results
1 | O=C(NCc1ccc(C(F)(F)F)cc1)c1cccc(O)c1O [Compound 3g, 2,3-Dihydroxy-N-(4-(trifluoromethyl)benzyl)benzamide] | 100 | 3.1 | –
2 | COc1ccc(-c2ncc(-c3ccc(C(F)(F)F)cc3)[nH]2)cc1 [Compound 1c, 2-(4-Methoxyphenyl)-5-(4-(trifluoromethyl)phenyl)-1H-imidazole] | 17 | 0.21 | β-cell protective activity (in words) (INS-1 cells [1]; INS-1 cells with Tm): no improvement
3 | O=C(NCc1ccc(C(F)(F)F)cc1)c1cccc(OCc2cccc(C(F)(F)F)c2)c1 [Compound 3n, N-(4-(Trifluoromethyl)benzyl)-3-((3-(trifluoromethyl)benzyl)oxy)benzamide] | 58 | 6.3 | β-cell protective activity (in words) (INS-1 cells [1]; INS-1 cells with Tm): markedly diminished activity
4 | O=C(NCc1ccc(C(F)(F)F)cc1)c1ccc(O)c(O)c1 [Compound 3f, 3,4-Dihydroxy-N-(4-(trifluoromethyl)benzyl)benzamide] | 100 | 2.2 | Concentration at which maximal protection is reached (INS-1 cells [1]; text of b115, unit printed as PM, unit of the source corrected): 10 µM
5 | COc1ccc(CNc2ncc(-c3ccc(C(F)(F)F)cc3)[nH]2)cc1 [Compound 2a, N-(4-methoxybenzyl)-5-(4-(trifluoromethyl)phenyl)-1H-imidazol-2-amine] | 18 | 0.05 | –
6 | COc1cc(CNC(=O)c2cccc(O)c2)ccc1O [Compound 3s, 3-Hydroxy-N-(4-hydroxy-3-methoxybenzyl)benzamide] | 57 | 28.7 | –
7 | COc1cccc(C(=O)NCc2ccc(C(F)(F)F)cc2)c1 [Compound 3j, 3-Methoxy-N-(4-(trifluoromethyl)benzyl)benzamide] | 71 | 25 | –
8 | COc1cc(-c2ncc(-c3ccc(C(F)(F)F)cc3)[nH]2)ccc1O [Compound 1b, 2-Methoxy-4-(5-(4-(trifluoromethyl)phenyl)-1H-imidazol-2-yl)phenol] | 7 | 0.26 | β-cell protective activity (in words) (INS-1 cells [1]; INS-1 cells with Tm): no improvement
9 | COc1cccc(NC(=O)NCc2ccc(C(F)(F)F)cc2)c1 [Compound 5b, 1-(3-Methoxyphenyl)-3-(4-(trifluoromethyl)benzyl)urea] | 94 | 1.6 | –
10 | O=C(NCc1ccc(C(F)(F)F)cc1)Nc1cccc(O)c1 [Compound 5a, 1-(3-Hydroxyphenyl)-3-(4-(trifluoromethyl)benzyl)urea] | 65 | 2.6 | –
11 | Oc1cccc(-c2ncc(-c3ccc(C(F)(F)F)cc3)[nH]2)c1O [Compound 1a, 3-(5-(4-(Trifluoromethyl)phenyl)-1H-imidazol-2-yl)benzene-1,2-diol] | 14 | 0.26 | Toxicity at rising compound concentration (in words) (INS-1 cells [1]; INS-1 cells with Tm): became toxic when the compound concentration arose; β-cell protective activity (in words) (INS-1 cells [1]; INS-1 cells with Tm): some β-cell protective activity at sub-micro molar concentrations
12 | COc1ccc(CNC(=O)c2cccc(O)c2)cc1 [Compound 3r, 3-Hydroxy-N-(4-methoxybenzyl)benzamide] | 65 | 21.3 | –
13 | COc1cccc(COc2cccc(C(=O)NCc3ccc(C(F)(F)F)cc3)c2)c1 [Compound 3m, 3-((3-Methoxybenzyl)oxy)-N-(4-(trifluoromethyl)benzyl)benzamide] | 81 | 4.1 | –
14 | CN(C)c1ccc(CNC(=O)c2cccc(O)c2)cc1 [Compound 3p, N-(4-(Dimethylamino)benzyl)-3-hydroxybenzamide] | 43 | 7.1 | –
15 | O=C(NCc1cccc(O)c1)c1cccc(O)c1 [Compound 3q, 3-Hydroxy-N-(3-hydroxybenzyl)benzamide] | 22 | 18.3 | –
16 | O=C(NCc1ccc(C(F)(F)F)cc1)c1ccc(O)cc1 [Compound 3h, 4-Hydroxy-N-(4-(trifluoromethyl)benzyl)benzamide] | 100 | 0.27 | –
17 | O=C(NCc1ccc(C(F)(F)F)cc1)c1cccc(OCC2CCNCC2)c1 [Compound 3l, 3-(Piperidin-4-ylmethoxy)-N-(4-(trifluoromethyl)benzyl)benzamide] | 81 | 2.1 | –
18 | CC(C)c1ccc(CNC(=O)c2cccc(O)c2)cc1 [Compound 3o, 3-Hydroxy-N-(4-isopropylbenzyl)benzamide] | 82 | 1.7 | –
19 | CCc1ccc(C(=O)NCc2cccc(C(F)(F)F)c2)cc1 [Compound 3b, 4-Ethyl-N-(3-(trifluoromethyl)benzyl)benzamide] | 43 | 4.4 | β-cell protective activity (in words) (INS-1 cells [1]; INS-1 cells with Tm): poorer β-cell protective activity
20 | O=C(Cc1cccc(O)c1)NCc1ccc(C(F)(F)F)cc1 [Compound 4a, 2-(3-Hydroxyphenyl)-N-(4-(trifluoromethyl)benzyl)acetamide] | – | 3.5 | Emax (INS-1 cells [1]; INS1, 72 h): 32%
21 | COc1cc(CNC(=O)c2ccc(O)c(OC)c2)ccc1O [Compound 3t, 4-Hydroxy-N-(4-hydroxy-3-methoxybenzyl)-3-methoxybenzamide] | 55 | 29.1 | β-cell protective activity (in words) (INS-1 cells [1]; INS-1 cells with Tm): equally poor β-cell protective activity
22 | O=C(NCc1cccc(C(F)(F)F)c1)c1ccc(O)c(O)c1 [Compound 3d, 3,4-Dihydroxy-N-(3-(trifluoromethyl)benzyl)benzamide] | 51 | 20.5 | –
23 | O=C(NCc1ccc(C(F)(F)F)cc1)c1cccc(OCC2CCCCC2)c1 [Compound 3k, 3-(Cyclohexylmethoxy)-N-(4-(trifluoromethyl)benzyl)benzamide] | 100 | 0.72 | –
24 | COc1ccc(CNc2ncc(-c3ccccc3OC)[nH]2)cc1 [Compound 2b, N-(4-methoxybenzyl)-5-(2-methoxyphenyl)-1H-imidazol-2-amine] | 9 | 0.021 | β-cell protective activity (in words) (INS-1 cells [1]; INS-1 cells with Tm): reduced the protecting activity
25 | Cc1ccc(C)c(NC(=O)c2nnn(-c3cccc(Cl)c3C)c2C)c1 [Compound 1, 1-(3-chloro-2-methylphenyl)-N-(2,5-dimethylphenyl)-5-methyl-1H-1,2,3-triazole-4-carboxamide, reference compound] | 87 | 2.8 | maximal activity (INS-1 cells [2]): 87%
26 | O=C(NCc1cccc(C(F)(F)F)c1)c1cccc(O)c1 [Compound 3c, 3-Hydroxy-N-(3-(trifluoromethyl)benzyl)benzamide] | 37 | 9.9 | –
27 | Cc1c(Cl)cccc1C(=O)NCc1cccc(C(F)(F)F)c1 [Compound 3a, 3-Chloro-2-methyl-N-(3-(trifluoromethyl)benzyl)benzamide] | 83 | 10 | –
28 | COc1cc(C(=O)NCc2cccc(C(F)(F)F)c2)ccc1O [Compound 3e, 4-Hydroxy-3-methoxy-N-(3-(trifluoromethyl)benzyl)benzamide] | 100 | 3.1 | –
